# Results: ChEMBL document CHEMBL4219219, “The synthesis and antistaphylococcal activity of N-sulfonaminoethyloxime derivatives of dehydroabietic acid” (Bioorg Med Chem Lett, 2018)
# Active and inactive are the calls of the source. The calls are words filed in the database; no cut-off is given here.
# Key:
# [1] = system: Staphylococcus aureus; assay: Antistaphylococcal activity against Staphylococcus aureus Newman after 18 hrs by two-fold serial dilution method; assay type: functional
# [2] = system: Escherichia coli; assay: Antibacterial activity against Escherichia coli AB1157 at 50 ug/ml after 18 hrs by two-fold serial dilution method; assay type: functional, organism-based
# [3] = system: Staphylococcus aureus; assay: Antistaphylococcal activity against gentamicin-resistant Staphylococcus aureus NRS-108 after 18 hrs by two-fold serial dilution method; assay type: functional; conditions: NRS-108, 18 h
# [4] = system: Staphylococcus aureus; assay: Antistaphylococcal activity against oxacillin/tetracycline-resistant Staphylococcus aureus NRS-100 after 18 hrs by two-fold serial dilution method; assay type: functional; conditions: NRS-100, 18 h
# [5] = system: Staphylococcus aureus; assay: Antistaphylococcal activity against erythromycin-resistant Staphylococcus aureus NRS-70 after 18 hrs by two-fold serial dilution method; assay type: functional; conditions: NRS-70, 18 h
# [6] = system: Staphylococcus aureus; assay: Antistaphylococcal activity against aminoglycosides/tetracycline-resistant Staphylococcus aureus NRS-1 after 18 hrs by two-fold serial dilution method; assay type: functional; conditions: NRS-1, 18 h
# [7] = system: Staphylococcus aureus; assay: Antistaphylococcal activity against linezolid-resistant Staphylococcus aureus NRS-271 containing phage type E-MRSA 15 after 18 hrs by two-fold serial dilution method; assay type: functional; conditions: NRS-271, 18 h
SMILES,MIC [1],Activity [2],MIC [3],MIC [4],MIC [5],MIC [6],MIC [7]
CCS(=O)(=O)NCCO/N=C1\C[C@H]2[C@](C)(C(=O)O)CCC[C@]2(C)c2cc(Br)c(C(C)C)cc21,12.5 to 25 µg/mL,inactive,–,–,–,–,–
CC(C)c1cc2c(cc1Br)[C@@]1(C)CCC[C@@](C)(C(=O)O)[C@@H]1C/C2=N\OCCNS(=O)(=O)c1ccc(Cl)cc1,0.78 to 1.56 µg/mL,inactive,1.56 to 3.13 µg/mL,1.56 to 3.13 µg/mL,0.78 to 1.56 µg/mL,1.56 to 3.13 µg/mL,1.56 to 3.13 µg/mL
CN[C@H](CC(C)C)C(=O)N[C@H]1C(=O)N[C@@H](CC(N)=O)C(=O)N[C@H]2C(=O)N[C@H]3C(=O)N[C@H](C(=O)N[C@H](C(=O)O)c4cc(O)cc(O)c4-c4cc3ccc4O)[C@H](O)c3ccc(c(Cl)c3)Oc3cc2cc(c3O[C@@H]2O[C@H](CO)[C@@H](O)[C@H](O)[C@H]2O[C@H]2C[C@](C)(N)[C@H](O)[C@H](C)O2)Oc2ccc(cc2Cl)[C@H]1O [VANCOMYCIN],0.78 to 1.56 µg/mL,–,0.39 to 0.78 µg/mL,0.39 to 0.78 µg/mL,0.2 to 0.39 µg/mL,1.56 to 3.13 µg/mL,0.39 to 0.78 µg/mL
CC(C)c1cc2c(cc1Br)[C@@]1(C)CCC[C@@](C)(C(=O)O)[C@@H]1C/C2=N\OCCNS(=O)(=O)c1ccc(Br)s1,1.56 to 3.13 µg/mL,inactive,1.56 to 3.13 µg/mL,1.56 to 3.13 µg/mL,1.56 to 3.13 µg/mL,1.56 to 3.13 µg/mL,1.56 to 3.13 µg/mL
CC(C)c1cc2c(cc1Br)[C@@]1(C)CCC[C@@](C)(C(=O)O)[C@@H]1C/C2=N\OCCNS(=O)(=O)c1cccc(Br)c1,0.78 to 1.56 µg/mL,inactive,0.78 to 1.56 µg/mL,1.56 to 3.13 µg/mL,0.78 to 1.56 µg/mL,1.56 to 3.13 µg/mL,1.56 to 3.13 µg/mL
CC(C)c1cc2c(cc1Br)[C@@]1(C)CCC[C@@](C)(C(=O)O)[C@@H]1C/C2=N\OCCNS(=O)(=O)c1ccc(Br)cc1,0.78 to 1.56 µg/mL,inactive,0.78 to 1.56 µg/mL,0.78 to 1.56 µg/mL,0.78 to 1.56 µg/mL,0.78 to 1.56 µg/mL,0.78 to 1.56 µg/mL
CC(C)c1cc2c(cc1Br)[C@@]1(C)CCC[C@@](C)(C(=O)O)[C@@H]1C/C2=N\OCCNS(=O)(=O)c1ccc(F)cc1,1.56 to 3.13 µg/mL,inactive,1.56 to 3.13 µg/mL,1.56 to 3.13 µg/mL,1.56 to 3.13 µg/mL,1.56 to 3.13 µg/mL,1.56 to 3.13 µg/mL
CC(C)c1cc2c(cc1Br)[C@@]1(C)CCC[C@@](C)(C(=O)O)[C@@H]1C/C2=N\OCCNS(=O)(=O)c1cc(F)c(F)c(F)c1,> 50 µg/mL,inactive,–,–,–,–,–
CC(C)c1cc2c(cc1Br)[C@@]1(C)CCC[C@@](C)(C(=O)O)[C@@H]1C/C2=N\OCCNS(=O)(=O)c1ccc(Cl)s1,1.56 to 3.13 µg/mL,inactive,1.56 to 3.13 µg/mL,1.56 to 3.13 µg/mL,0.78 to 1.56 µg/mL,1.56 to 3.13 µg/mL,1.56 to 3.13 µg/mL
CC(C)c1cc2c(cc1Br)[C@@]1(C)CCC[C@@](C)(C(=O)O)[C@@H]1C/C2=N\OCCNS(=O)(=O)c1c(Cl)cccc1Cl,1.56 to 3.13 µg/mL,inactive,1.56 to 3.13 µg/mL,1.56 to 3.13 µg/mL,0.78 to 1.56 µg/mL,1.56 to 3.13 µg/mL,1.56 to 3.13 µg/mL
CC(C)c1cc2c(cc1Br)[C@@]1(C)CCC[C@@](C)(C(=O)O)[C@@H]1C/C2=N\OCCNS(=O)(=O)c1cccc(Cl)c1,0.78 to 1.56 µg/mL,inactive,1.56 to 3.13 µg/mL,1.56 to 3.13 µg/mL,0.78 to 1.56 µg/mL,1.56 to 3.13 µg/mL,1.56 to 3.13 µg/mL
CC(C)c1cc2c(cc1Br)[C@@]1(C)CCC[C@@](C)(C(=O)O)[C@@H]1C/C2=N\OCCNS(=O)(=O)c1ccc2ccccc2c1,1.56 to 3.13 µg/mL,inactive,1.56 to 3.13 µg/mL,3.13 to 6.25 µg/mL,1.56 to 3.13 µg/mL,3.13 to 6.25 µg/mL,3.13 to 6.25 µg/mL
COc1ccc(S(=O)(=O)NCCO/N=C2\C[C@H]3[C@](C)(C(=O)O)CCC[C@]3(C)c3cc(Br)c(C(C)C)cc32)cc1,3.13 to 6.25 µg/mL,inactive,–,–,–,–,–
CC(C)c1ccc2c(c1)CC[C@H]1[C@](C)(C(=O)O)CCC[C@]21C [DEHYDROABIETIC ACID],12.5 to 20 µg/mL,–,12.5 to 25 µg/mL,12.5 to 25 µg/mL,12.5 to 25 µg/mL,12.5 to 25 µg/mL,12.5 to 25 µg/mL
CC(C)c1cc2c(cc1Br)[C@@]1(C)CCC[C@@](C)(C(=O)O)[C@@H]1C/C2=N\OCCNS(=O)(=O)c1c(F)cccc1F,> 50 µg/mL,inactive,–,–,–,–,–
CN(C)[C@@H]1C(O)=C(C(N)=O)C(=O)[C@@]2(O)C(O)=C3C(=O)c4c(O)cccc4[C@@](C)(O)[C@H]3C[C@@H]12 [TETRACYCLINE],< 0.2 µg/mL,–,< 0.2 µg/mL,< 0.2 µg/mL,< 0.2 µg/mL,> 25 µg/mL,< 0.2 µg/mL
CC(C)c1cc2c(cc1Br)[C@@]1(C)CCC[C@@](C)(C(=O)O)[C@@H]1C/C2=N\OCCNS(=O)(=O)C1CC1,6.25 to 12.5 µg/mL,inactive,–,–,–,–,–
